Test system: LG0567-F671-PDC KRAS tumor spheroid viability
Assay: Anticancer human tumor LG0567-F671-PDC patient-derived lung adenocarcinoma cell line growth inhibition [KRAS2]
Conditions: spheroids with HUVEC and MSC; for IC50: curve of first compound; for viability, T/C: stronger effect = lower value
Summary of the method: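 KRAS-mutant tumor cells were grown as spheroids with HUVEC endothelial cells and human MSCs as stroma. Targeted agents were tested alone and with KRAS pathway inhibitors. Doses started at or near clinical Cmax, or 10 microM, descending half-log.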

[1] = second compound 0.1 µM, first compound 0.000316 µM
[2] = second compound 0.1 µM, first compound 0.001 µM
[3] = second compound 0.1 µM, first compound 0.00316 µM
[4] = second compound 0.1 µM, first compound 0.01 µM
[5] = second compound 0.1 µM, first compound 0.0316 µM
[6] = second compound 0.316 µM, first compound 0.000316 µM
[7] = second compound 0.316 µM, first compound 0.001 µM
[8] = second compound 0.316 µM, first compound 0.00316 µM
[9] = second compound 0.316 µM, first compound 0.01 µM
[10] = second compound 0.316 µM, first compound 0.0316 µM
[11] = second compound 1 µM, first compound 0.000316 µM
[12] = second compound 1 µM, first compound 0.001 µM
[13] = second compound 1 µM, first compound 0.00316 µM
[14] = second compound 1 µM, first compound 0.01 µM
[15] = second compound 1 µM, first compound 0.0316 µM
[16] = second compound 3.16 µM, first compound 0.000316 µM
[17] = second compound 3.16 µM, first compound 0.001 µM
[18] = second compound 3.16 µM, first compound 0.00316 µM
[19] = second compound 3.16 µM, first compound 0.01 µM
[20] = second compound 3.16 µM, first compound 0.0316 µM
[21] = second compound 10 µM, first compound 0.000316 µM
[22] = second compound 10 µM, first compound 0.001 µM
[23] = second compound 10 µM, first compound 0.00316 µM
[24] = second compound 10 µM, first compound 0.01 µM
[25] = second compound 10 µM, first compound 0.0316 µM
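Further: drug exposure lasted seven days after spheroids formed for three days.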
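Wherever viability, T/C is given: 100% = DMSO vehicle control viability.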

Structure (SMILES) | IC50 (second compound 0.1 µM) | IC50 (second compound 0.316 µM) | IC50 (second compound 1 µM) | IC50 (second compound 3.16 µM) | IC50 (second compound 10 µM) | viability, T/C [1] | viability, T/C [2] | viability, T/C [3] | viability, T/C [4] | viability, T/C [5] | viability, T/C [6] | viability, T/C [7] | viability, T/C [8] | viability, T/C [9] | viability, T/C [10] | viability, T/C [11] | viability, T/C [12] | viability, T/C [13] | viability, T/C [14] | viability, T/C [15] | other results
CC(=O)Nc1cccc(-n2c(=O)n(C3CC3)c(=O)c3c(Nc4ccc(I)cc4F)n(C)c(=O)c(C)c32)c1 + CNCc1ccccc1-c1csc(C(C)Nc2nc(C)nc3cc(OC)c(OC)cc23)c1 | 2.08 nM | 0.799 nM | 0.813 nM | < 0.1 nM | < 0.1 nM | 68.3% | 49.1% | 52.5% | 29.4% | 11.6% | 54.7% | 47.8% | 33.4% | 39% | 8.76% | 63.2% | 46.9% | 26.8% | 17.9% | 8.07% | viability, T/C (second compound 0.1 µM, first compound 0.0001 µM): 73.6%; viability, T/C (second compound 0.316 µM, first compound 0.0001 µM): 65.1%; viability, T/C (second compound 1 µM, first compound 0.0001 µM): 61.8%; viability, T/C (second compound 3.16 µM, first compound 0.0001 µM): 2.63%; viability, T/C [16]: 1.14%; viability, T/C [17]: 0.22%; viability, T/C [18]: 0.57%; viability, T/C [19]: 0.29%; viability, T/C [20]: 0.3%; viability, T/C (second compound 10 µM, first compound 0.0001 µM): 1.49%; viability, T/C [21]: 0.17%; viability, T/C [22]: 0.53%; viability, T/C [23]: 0.14%; viability, T/C [24]: 0.14%; viability, T/C [25]: 0.24%
CN(C)C/C=C/C(=O)Nc1cc2c(Nc3ccc(F)c(Cl)c3)ncnc2cc1O[C@H]1CCOC1 + CNCc1ccccc1-c1csc(C(C)Nc2nc(C)nc3cc(OC)c(OC)cc23)c1 | 24.8 nM | 17.1 nM | 6.76 nM | 0.404 nM | < 0.316 nM | 88% | 71.5% | 65.5% | 49% | 46.9% | 77.9% | 72.8% | 59.7% | 52% | 43.5% | 54.7% | 61.3% | 49.4% | 48.2% | 44.2% | viability, T/C (second compound 0.1 µM, first compound 0.1 µM): 51.3%; viability, T/C (second compound 0.316 µM, first compound 0.1 µM): 53.1%; viability, T/C (second compound 1 µM, first compound 0.1 µM): 37.4%; viability, T/C [16]: 54.9%; viability, T/C [17]: 31.7%; viability, T/C [18]: 0.31%; viability, T/C [19]: 0.13%; viability, T/C [20]: 0.63%; viability, T/C (second compound 3.16 µM, first compound 0.1 µM): 0.28%; viability, T/C [21]: 0.28%; viability, T/C [22]: 0.22%; viability, T/C [23]: 0.1%; viability, T/C [24]: 0.38%; viability, T/C [25]: 1.14%; viability, T/C (second compound 10 µM, first compound 0.1 µM): 0.66%

Source: PubChem BioAssay AID1963856 (Molecular Pharmacology Branch, DTP, NCI, 2024)
